Measurements taken from US8992933B2, “Methods for activating T cells and modulating an immune response” (New York University, priority 2011, dated 2015).

Assays:
Assay type in all cases: cell-based, human
[1] = system: Akt phosphorylation; assay: Intracellular phospho-Akt (Ser473) staining
Procedure: (§1) Cells were stained as previously described (Oswald-Richter, et al., PLoS Pathogens 2007; 3: e58). For intracellular staining, T cell cultures were stimulated for 5 hours at 37° C. with PMA and Ionomycin and Golgistop (BD Biosciences). Stimulated cells were washed with PBS and stained with Fixable Viability Dye eFluor450 (eBioscience) to gate on live cells. Cells were then fixed and permeabilized by commercially available Foxp3 intracellular staining kit (eBioscience) or cytofix/cytoperm kit (BD Biosciences) as per manufacturer's protocol. Antibodies used for surface and intracellular staining included: CD45RO-[…]3), PE Cy7 or A700; […] IL-17A (IL-17)-Pacific Blue (Clone BL168), FITC or Percp Cy5.5; […]) or APC (eBioscience); […] FOXO1 rabbit monoclonal antibody; phospho-AKT ([…])-Alexa Fluor 488; Rabbit IgG isotype control-Alexa Fluor 488 (Cell Signaling, Danvers, Mass.); and CCR6-biotin (BD Biosciences). Secondary antibodies used were: Streptavidin-APC or […]5.5 (BD Biosciences), Goat anti mouse-APC (BD Biosciences), anti rabbit-Alexa 647 (Molecular Probes). All data were acquired on LSRII instrument (BD Biosciences) using FACSDiva software. Data analyses were done using Flowjo software (Treestar Inc, Ashland, Oreg.). For phospho-Akt staining, Jurkat cells were fixed with BD Cytofix buffer (BD Biosciences) pre-warmed to 37° C. for 10 minutes. […]

[2] = system: TM cells; assay: Cell viability under PI-3K/Akt inhibitor treatment; conditions: 1-10 μg/mL
Procedure: as §1

[3] = system: Rorc and Foxp3; assay: Rorc and Foxp3 mRNA by RT-qPCR in CCR6+/- cells; conditions: IL-7 medium 7 days, then inhibitor for 2 days
Procedure: Peripheral Blood Mononuclear Cells (PBMCs) from healthy individuals (New York Blood Center, New York, N.Y.) were prepared using Ficoll-paque plus (GE Amersham, Uppsala, Sweden). Whole blood samples from rheumatoid arthritis patients were purchased from Bioreclamation (New York, N.Y.) and were processed similar to healthy donor blood. All healthy donor and patient samples were consented prior to purchase, were none-identifiable and approved by institutional human subjects board. […] Sorted cells (>99% pure) were cultured in serum-free Xvivo-15 medium (Lonza, Wakersville, Md.) at 37° C. and 5% CO2 for 6-7 days prior to restimulation with PMA and ionomycin (see below). […]). […] In the experiments using PI-3K signaling inhibitors, cells were treated with PI-3K specific inhibitor, LY294002 (EMD, Gibbstown, N.J.), or Akt specific inhibitor, AKTi-1/2 (EMD), for 2 days before PMA and Ionomycin restimulation. Purified T cells (1×10^5) were snap frozen in liquid nitrogen for total RNA isolation. […] The extracted RNA was then reverse transcribed into cDNA and quantified using Taqman Cell to CT kit (Applied Biosystems, Carlsbad, Calif.). […] Data was acquired and analyzed on ABI 7500 sequence detection system. Quantitative real-time PCR data was analyzed by normalizing Ct values of genes of interest to the Ct values of the housekeeping gene b-Actin.

[4] = system: CCR6+ TM cells; assay: PI-3K/Akt inhibitor treatment of IL-7-cultured CCR6+ TM cells, cytokine production after PMA and ionomycin
Procedure: Peripheral Blood Mononuclear Cells (PBMCs) from healthy individuals (New York Blood Center, New York, N.Y.) were prepared using Ficoll-paque plus (GE Amersham, Uppsala, Sweden). […] All healthy donor and patient samples were consented prior to purchase, were none-identifiable and approved by institutional human subjects board. CD4^+ T cells were isolated using Dynal CD4 Positive Isolation Kit (Invitrogen, Carlsbad, Calif.) directly from purified PBMCs and were >99% pure. CD4^+ T cells were sorted by FACS ARIA cell sorter (BD, San Jose, Calif.) into CD45RO^+ CD25^− memory T (TM) cells. TM cells were activated either by anti-CD3 and anti-CD28 (aCD3/aCD28) coated beads (1:4 beads:cells ratio) for 18-24 hours, or by Phorbol 12-myristate 13-acetate (PMA) and ionomycin for 4 hours and further FACS sorted based on CCR6 and IL-17 expression into CCR6^− IL-17^−, CCR6^+IL-17^+, or CCR6^+IL-17^− subsets (as determined by secretion assay labeling, see below). Sorted cells (>99% pure) were cultured in serum-free Xvivo-15 medium (Lonza, Wakersville, Md.) at 37° C. and 5% CO2 for 6-7 days prior to restimulation with PMA and ionomycin (see below). Culture conditions included: 10 U/mL recombinant human IL-2, (BD Biosciences, San Jose, Calif.), 20 ng/mL IL-7, 20 ng/mL IL-15, or 20 ng/mL IL-23 (all from R&D Systems, Minneapolis, Minn.). […] In the experiments using PI-3K signaling inhibitors, cells were treated with PI-3K specific inhibitor, LY294002 (EMD, Gibbstown, N.J.), or Akt specific inhibitor, AKTi-1/2 (EMD), for 2 days before PMA and Ionomycin restimulation.
Cells were stained as previously described (Oswald-Richter, et al., PLoS Pathogens 2007; 3: e58). For intracellular staining, T cell cultures were stimulated for 5 hours at 37° C. with PMA and Ionomycin and Golgistop (BD Biosciences). Stimulated cells were washed with PBS and stained with Fixable Viability Dye eFluor450 (eBioscience) to gate on live cells. Cells were then fixed and permeabilized by commercially available Foxp3 intracellular staining kit (eBioscience) or cytofix/cytoperm kit (BD Biosciences) as per manufacturer's protocol. Antibodies used for surface and intracellular staining included: CD45RO-FITC; CD25-PE; IFN-γ-FITC (clone 4S. B3), PE Cy7 or A700; IL-4-APC or PE; IL-17A (IL-17)-Pacific Blue (Clone BL168), FITC or Percp Cy5.5; IL-10-APC (Biolegend); IL-22-PE (R&D) or APC (eBioscience); IL-21-PE (clone 22URT1, eBioscience); FOXO1 rabbit monoclonal antibody; phospho-AKT (Ser473)-Alexa Fluor 488; Rabbit IgG isotype control-Alexa Fluor 488 (Cell Signaling, Danvers, Mass.); and CCR6-biotin (BD Biosciences). Secondary antibodies used were: Streptavidin-APC or PercpCy5.5 (BD Biosciences), Goat anti mouse-APC (BD Biosciences), anti rabbit-Alexa 647 (Molecular Probes). […]

[5] = system: Klf2; assay: Klf2 mRNA by RT-qPCR in TM cells; conditions: IL-2 medium 2 weeks, inhibitor for 2 days
Procedure: Peripheral Blood Mononuclear Cells (PBMCs) from healthy individuals (New York Blood Center, New York, N.Y.) were prepared using Ficoll-paque plus (GE Amersham, Uppsala, Sweden). Whole blood samples from rheumatoid arthritis patients were purchased from Bioreclamation (New York, N.Y.) and were processed similar to healthy donor blood. All healthy donor and patient samples were consented prior to purchase, were none-identifiable and approved by institutional human subjects board. CD4^+ T cells were isolated using Dynal CD4 Positive Isolation Kit (Invitrogen, Carlsbad, Calif.) directly from purified PBMCs and were >99% pure. […] TM cells were activated either by anti-CD3 and anti-CD28 (aCD3/aCD28) coated beads (1:4 beads:cells ratio) for 18-24 hours, or by Phorbol 12-myristate 13-acetate (PMA) and ionomycin for 4 hours and further FACS sorted based on CCR6 and IL-17 expression into CCR6^− IL-17^−, CCR6^+IL-17^+, or CCR6^+IL-17^− subsets (as determined by secretion assay labeling, see below). […]
Purified T cells (1×10^5) were snap frozen in liquid nitrogen for total RNA isolation. […] The extracted RNA was then reverse transcribed into cDNA and quantified using Taqman Cell to CT kit (Applied Biosystems, Carlsbad, Calif.). […] Data was acquired and analyzed on ABI 7500 sequence detection system. […]

[6] = one week in IL-7, then inhibitor for 48 hours

O=c1[nH]c2ccccc2n1C1CCN(Cc2ccc(-c3nc4cc5nc[nH]c5cc4nc3-c3ccccc3)cc2)CC1 [AKTi-1/2]
Akt phosphorylation (Ser473) in Jurkat cells ([1]; Jurkat T cells treated for 30 minutes): Inhibition of Akt phosphorylation | cytokine-dependent phosphorylation of Akt ([1]; TM cells, 1-10 μg/mL): downregulated | cell viability [2]: without adversely affecting cell viability | Rorc and Foxp3 transcripts [3]: not affected | IL-17 and IL-22 production induced by IL-7 from CCR6+ TM cells ([4]; 5 μg/ml, Day 10): suppresses | expression of IFNγ [4, 6]: not affected | expression of IL-4 [4, 6]: less reduced | γc-mediated IL-17/IL-22 induction ([4]; one week in IL-7, then inhibitor for 48 hours, dose-dependent): repressed | Klf2 message expression in aCD3/aCD28-activated CCR6+ TM cells expanded in IL-2 [5]: upregulates
